# Data from patent US12460243B2, “Mass spectrometry determination of the sensitivity or resistance of bacteria to an antibiotic” (priority 2019, dated 2025).
# Bridge positions count the residues as written; N and C are the ends. Square brackets hold non-standard residues; d marks the D form. Peptide text beside a SMILES is read from it. * marks the point of attachment. Heptanoyl(6-Me) = CC(C)CCCCC(=O)*; Dab = NCC[C@H](N)C(=O)O
# Test system: Klebsiella pneumoniae
# Assay: MALDI-TOF detection of released characteristic proteins, 10 min at 50° C., filtration (examples V, VI)
# Assay type: cell-based
# Conditions: for Aire sous la courbe des pics observés, Protéine ribosomique 50S L29 / Aire sous la courbe des pics observés, Protéine ribosomique 50S L31 / Aire sous la courbe des pics observés, Protéine ribosomique 50S L34 / Aire sous la courbe des pics observés, US9 / Ratio par protéine 6290/Colistine / Ratio par protéine 8308/Colistine / Ratio par protéine CsbD/Colistine / Ratio par protéine DNA BP H-NS/Colistine / Ratio par protéine L29/Colistine / Ratio par protéine L31/Colistine / Ratio par protéine L34/Colistine / Ratio par protéine US9/Colistine / Somme des ratios / Aire sous la courbe des pics observés, 6290 / Aire sous la courbe des pics observés, 8308 / Aire sous la courbe des pics observés, CsbD domain-containing protein / Aire sous la courbe des pics observés, DNA binding protein H-NS / sensitivity or resistance to colistin by MALDI-TOF: colistin 2.5 mg/ml, 10 min 50° C.; for classification by sum of the ratios against threshold: threshold 0.45
# Description: The tests were carried out using the following steps: • preparing a suspension of microorganism at 2 McF in water (suspension medium, bioMérieux reference 70700), • preparing a solution of colistin sulfate (Sigma reference C4461) at a concentration of 2× in pure water (taking into account the colistin titer indicated by the manufacturer).
# The proteins characteristic of the species Klebsiella pneumoniae are the DNA binding protein H-NS, the ribosomal proteins L29, L31, L34 and US9, the cold shock protein containing a CsbD domain (CsbD domain-containing protein), and the uncharacterized proteins with m/z 6290 and 8308. These proteins are characterized respectively by the peaks at 7705 (DNA binding protein H-NS), 7274 (L29), 7743 (L31), 5381 (L34), 7384 (US9), 8309 (CsbD), more or less 1000 parts per million (ppm). For their part, the hypothetical proteins are characterized by peaks at 6290 and […], more or less 1000 parts per million (ppm).
# In the context of this example, the tests were carried out with the method of the present invention to determine the sensitivity or resistance of several bacteria of several strains such as in example V and comprising the following steps: • measuring the intensity of each peak observed, • finding a ratio between the sum of the intensities of the protein peaks of the microorganism and at least 1 peak of colistin. • determining the status, resistant or sensitive to colistin, as a function of the sum of the ratios obtained and of a threshold fixed for each species. • a resistant microorganism will have a low ratio and a sensitive microorganism will have a high ratio.
# The K. pneumoniae strains KP S10-1, KP S10-2, KP S15-1, KP S15-2, KP R9-1, KP R9-2, KP R16-1 and KP R16-2 are also studied and the proteins characteristic of the species K. pneumoniae are analyzed. These characteristic proteins are the DNA binding protein H-NS, the ribosomal proteins L29, L31, L34 and US9, the cold shock protein containing a CsbD domain (CsbD domain-containing protein), and the uncharacterized proteins with m/z 6290 and 8308.
smiles,measurement,setting,value
CC(C)CCCCC(=O)N[C@@H](CCN)C(=O)N[C@H](C(=O)N[C@@H](CCN)C(=O)N[C@H]1CCNC(=O)[C@H]([C@@H](C)O)NC(=O)[C@H](CCN)NC(=O)[C@H](CCN)NC(=O)[C@H](CC(C)C)NC(=O)[C@@H](CC(C)C)NC(=O)[C@H](CCN)NC1=O)[C@@H](C)O [colistin] ({Heptanoyl(6-Me)}-[Dab]T[Dab][Dab][Dab][dL]L[Dab][Dab]T; lactam 4-C),"Aire sous la courbe des pics observés, Protéine ribosomique 50S L29",strain KP S10-1,474 unité arbitraire
same,"Aire sous la courbe des pics observés, Protéine ribosomique 50S L31",strain KP S10-1,321 unité arbitraire
same,"Aire sous la courbe des pics observés, Protéine ribosomique 50S L34",strain KP S10-1,0 unité arbitraire
same,"Aire sous la courbe des pics observés, US9",strain KP S10-1,297 unité arbitraire
same,Ratio par protéine 6290/Colistine,strain KP S10-1,0.55
same,Ratio par protéine 8308/Colistine,strain KP S10-1,0.14
same,Ratio par protéine CsbD/Colistine,strain KP S10-1,0.00
same,Ratio par protéine DNA BP H-NS/Colistine,strain KP S10-1,0.25
same,Ratio par protéine L29/Colistine,strain KP S10-1,0.31
same,Ratio par protéine L31/Colistine,strain KP S10-1,0.21
same,Ratio par protéine L34/Colistine,strain KP S10-1,0.00
same,Ratio par protéine US9/Colistine,strain KP S10-1,0.20
same,Somme des ratios,strain KP S10-1,1.66
same,"Aire sous la courbe des pics observés, 6290",strain KP S10-2,146 unité arbitraire
same,"Aire sous la courbe des pics observés, 8308",strain KP S10-2,54 unité arbitraire
same,"Aire sous la courbe des pics observés, CsbD domain-containing protein",strain KP S10-2,0 unité arbitraire
same,"Aire sous la courbe des pics observés, DNA binding protein H-NS",strain KP S10-2,119 unité arbitraire
same,"Aire sous la courbe des pics observés, Protéine ribosomique 50S L29",strain KP S10-2,124 unité arbitraire
same,"Aire sous la courbe des pics observés, Protéine ribosomique 50S L31",strain KP S10-2,76 unité arbitraire
same,"Aire sous la courbe des pics observés, Protéine ribosomique 50S L34",strain KP S10-2,134 unité arbitraire
same,"Aire sous la courbe des pics observés, US9",strain KP S10-2,77 unité arbitraire
same,Ratio par protéine 6290/Colistine,strain KP S10-2,0.17
same,Ratio par protéine 8308/Colistine,strain KP S10-2,0.06
same,Ratio par protéine CsbD/Colistine,strain KP S10-2,0.00
same,Ratio par protéine DNA BP H-NS/Colistine,strain KP S10-2,0.14
same,Ratio par protéine L29/Colistine,strain KP S10-2,0.15
same,Ratio par protéine L31/Colistine,strain KP S10-2,0.09
same,Ratio par protéine L34/Colistine,strain KP S10-2,0.16
same,Ratio par protéine US9/Colistine,strain KP S10-2,0.09
same,Somme des ratios,strain KP S10-2,0.86
same,"Aire sous la courbe des pics observés, 6290",strain KP S15-1,215 unité arbitraire
same,"Aire sous la courbe des pics observés, 8308",strain KP S15-1,0 unité arbitraire
same,"Aire sous la courbe des pics observés, CsbD domain-containing protein",strain KP S15-1,248 unité arbitraire
same,"Aire sous la courbe des pics observés, DNA binding protein H-NS",strain KP S15-1,0 unité arbitraire
same,"Aire sous la courbe des pics observés, Protéine ribosomique 50S L29",strain KP S15-1,0 unité arbitraire
same,"Aire sous la courbe des pics observés, Protéine ribosomique 50S L31",strain KP S15-1,0 unité arbitraire
same,"Aire sous la courbe des pics observés, Protéine ribosomique 50S L34",strain KP S15-1,0 unité arbitraire
same,"Aire sous la courbe des pics observés, US9",strain KP S15-1,150 unité arbitraire
same,Ratio par protéine 6290/Colistine,strain KP S15-1,0.24
same,Ratio par protéine 8308/Colistine,strain KP S15-1,0.00
same,Ratio par protéine CsbD/Colistine,strain KP S15-1,0.28
same,Ratio par protéine DNA BP H-NS/Colistine,strain KP S15-1,0.00
same,Ratio par protéine L29/Colistine,strain KP S15-1,0.00
same,Ratio par protéine L31/Colistine,strain KP S15-1,0.00
same,Ratio par protéine L34/Colistine,strain KP S15-1,0.00
same,Ratio par protéine US9/Colistine,strain KP S15-1,0.17
same,Somme des ratios,strain KP S15-1,0.68
same,"Aire sous la courbe des pics observés, 6290",strain KP S15-2,141 unité arbitraire
same,"Aire sous la courbe des pics observés, 8308",strain KP S15-2,0 unité arbitraire
same,"Aire sous la courbe des pics observés, CsbD domain-containing protein",strain KP S15-2,237 unité arbitraire
same,"Aire sous la courbe des pics observés, DNA binding protein H-NS",strain KP S15-2,0 unité arbitraire
same,"Aire sous la courbe des pics observés, Protéine ribosomique 50S L29",strain KP S15-2,0 unité arbitraire
same,"Aire sous la courbe des pics observés, Protéine ribosomique 50S L31",strain KP S15-2,0 unité arbitraire
same,"Aire sous la courbe des pics observés, Protéine ribosomique 50S L34",strain KP S15-2,0 unité arbitraire
same,"Aire sous la courbe des pics observés, US9",strain KP S15-2,92 unité arbitraire
same,Ratio par protéine 6290/Colistine,strain KP S15-2,0.14
same,Ratio par protéine 8308/Colistine,strain KP S15-2,0.00
same,Ratio par protéine CsbD/Colistine,strain KP S15-2,0.23
same,Ratio par protéine DNA BP H-NS/Colistine,strain KP S15-2,0.00
same,Ratio par protéine L29/Colistine,strain KP S15-2,0.00
same,Ratio par protéine L31/Colistine,strain KP S15-2,0.00
same,Ratio par protéine L34/Colistine,strain KP S15-2,0.00
same,Ratio par protéine US9/Colistine,strain KP S15-2,0.088
same,Somme des ratios,strain KP S15-2,0.45
same,classification by sum of the ratios against threshold,strain KP-R9,resistant (the strains whose sum of the ratios is strictly below 0.45 will be considered as resistant)
same,classification by sum of the ratios against threshold,strain KP-R16,resistant (the strains whose sum of the ratios is strictly below 0.45 will be considered as resistant)
same,classification by sum of the ratios against threshold,strain KP-S10,sensitive (the strains whose sum of the ratios is greater than or equal to 0.45 will be considered as sensitive)
same,classification by sum of the ratios against threshold,strain KP-S15,sensitive (the strains whose sum of the ratios is greater than or equal to 0.45 will be considered as sensitive)
same,sensitivity or resistance to colistin by MALDI-TOF,strain KP_R9,resistant
same,sensitivity or resistance to colistin by MALDI-TOF,strain KP_R16,resistant
same,sensitivity or resistance to colistin by MALDI-TOF,strain KP_S10,sensitive
same,sensitivity or resistance to colistin by MALDI-TOF,strain KP_S15,sensitive
